Source: patent US20060067990A1 (priority 2004, published 2006)
“And” between values parts separate entries of the source, which are not always exact repeats. Identical values can stand only once.

Legend:
[1] = test system: enzymes produced by S. aureus MN8; test: Breakdown of test compounds by enzymes produced by S. aureus MN8 (GC/MS and liquid chromatography of culture fluid); assay type: in vitro ADME, Staphylococcus aureus; settings: Example 7; for GC/MS: concentration of the dominant compound over time / GC/MS: dominant compound found in the sample: culture fluid at 3, 6, 9 and 24 hours
Protocol: The test compounds, in the desired concentrations, were placed in 100 mL of a growth medium in a sterile, 500 mL Corning Fleaker (Fisher Scientific, Pittsbury, Pa.). The growth medium and inoculum were prepared as in Example 1.
The test compounds were added to the growth medium in the amount necessary to obtain the desired final concentration.
Each fleaker was inoculated with the amount of inoculum determined as described above. The fleakers were capped with sterile aluminum foil and incubated at 35° C. in atmospheric air in a Lab-Line orbital water bath (available from VWR Scientific Products, McGaw Park, Ill.) at 180 rpm. Fifteen milliliter samples were removed at 3, 6, 9, and 24 hours. The optical density (595 nm) of the culture fluid was determined and the culture fluid collected at 24 hours was assayed for the number of colony forming units of S. aureus MN8 using standard plate count procedures.
In preparation for analysis of the integrity of the test compounds, the culture fluid was centrifuged at 3000 rpm at 2-10° C. for 15 minutes. The supernatant was filter sterilized through an AUTOVIAL 5 syringeless filter, […] pore size (available from Whatman, Inc., Clifton, N.J.). The resulting fluid was frozen at −70° C. in a FISHERBRAND (12 mm×75 mm) polystyrene culture tube (Fisher Scientific, Pittsburgh, Pa.) until chemical analysis could be performed.
Using an Agilent Technologies 5973N GC/MS, analysis was performed on undiluted solutions at 3, 6, 9, and 24 hours to evaluate the ability of S. aureus MN8 to breakdown the test compounds. Based on the analysis, the control sample, which had no test compounds added, comprised mostly acetic acid at all time intervals.
Additional analysis of the 6 hour and 24 hour samples was conducted by liquid chromatography. In preparation for the chromatography, the samples were diluted 10 fold with water. The dilutions were then analyzed using an ion exclusion column to achieve the separation. Detection of the compounds was accomplished through UV absorbance at 230 nm.

S. aureus MN8 = assay type: cell-based, Staphylococcus aureus
TSST-1 [2] = assay type: cell-based, Staphylococcus aureus
TSST-1 [3] = assay type: cell-based, Staphylococcus aureus; remark: listed apart in the source

Molecule: O=C(O)c1ccccc1 [benzoic acid]
- GC/MS: concentration of the dominant compound over time [1]: decreased over time
- GC/MS: dominant compound found in the sample [1]: benzoic acid

Molecule: CC(C)CC(NC(=O)c1ccccc1)C(=O)O (racemic) [N-benzoyl-DL-leucine, N-Benzoyl-DL-Leucine]
- CFU/mL (S. aureus MN8): 2.23E+08 CFU/mL and 2.69E+08 CFU/mL
- ELISA: TSST-1 ng per mL (TSST-1 [2]): 7.9 ng per mL and 14.6 ng per mL
- liquid chromatography: evidence of breakdown to the active species ([1]; 6 hour and 24 hour samples, UV 230 nm): breakdown to benzoic acid
- GC/MS: concentration of the dominant compound over time [1]: decreasing concentration over time
- GC/MS: dominant compound found in the sample [1]: benzoic acid as the dominant compound

Molecule: myreth-3-myristate [Cetiol 1414E]
- CFU/mL (S. aureus MN8): 1.75E+08 CFU/mL and 2.61E+08 CFU/mL and 2.48E+08 CFU/mL and 2.05E+08 CFU/mL
- CFU/mL ×10^7 (S. aureus MN8): 22.5 CFU/mL ×10^7 and 25.6 CFU/mL ×10^7 and 17.4 CFU/mL ×10^7
- inhibition of the growth of S. aureus, pairwise statistical comparison (S. aureus MN8): significantly greater inhibition of the growth of S. aureus
- % Reduction (TSST-1 [2]): 74% and 69% and 87%
- ELISA: TSST-1 (% inhibition) (TSST-1 [2]): (79%)
- ELISA: TSST-1 Nanograms/mL (TSST-1 [2]): 61 Nanograms/mL

Molecule: CC(C)C(NC(=O)c1ccccc1)C(=O)O (racemic) [N-benzoyl-DL-valine, N-Benzoyl-DL-Valine]
- CFU/mL (S. aureus MN8): 1.61E+08 CFU/mL and 2.07E+08 CFU/mL

Molecule: OCc1ccccc1 [Benzyl alcohol, benzyl alcohol]
- CFU/mL (S. aureus MN8): 5.02E+08 CFU/mL and 7.52E+08 CFU/mL
- toxin production, pairwise statistical comparison (TSST-1 [2]): significantly decreased toxin production
- TSST-1 ng/mL (TSST-1 [3]): 2.46 ng/mL and 2.22 ng/mL and 1.33 ng/mL
- GC/MS: concentration of the dominant compound over time [1]: decreased over time
- GC/MS: dominant compound found in the sample [1]: benzyl alcohol

Molecule: CCCCCCCCCCCC(=O)OCc1ccccc1 [Benzyl laurate, Benzyl- laurate]
- CFU/mL (S. aureus MN8): 2.05E+08 CFU/mL and 3.05E+08 CFU/mL and 4.05E+08 CFU/mL and 3.80E+08 CFU/mL
